Assay results from paper PMC7084598, “Design, Synthesis, and Biological Evaluation of Two Series of Novel A-Ring Fused Steroidal Pyrazines as Potential Anticancer Agents” (International Journal of Molecular Sciences, 2020).

Key:
MCF-7 = system: MCF-7; set-up: method as in PMID 14695204, PMID 26042639; conditions: cited from earlier work
DU-145 = system: DU-145; set-up: method as in PMID 14695204, PMID 26042639; conditions: cited from earlier work
NCI-H460 = system: NCI-H460; set-up: method as in PMID 14695204, PMID 26042639; conditions: cited from earlier work
P338 = system: P338; set-up: method as in PMID 14695204, PMID 26042639; conditions: cited from earlier work
PC-3 cells [1] = assay: Cell apoptosis assay, Annexin V-FITC/PI dual staining, flow cytometry; assay type: cell-based, human; conditions: for Percentage of Cell Apoptosis (%) Normal Living Cell: 48 h (Q1-LL); for Percentage of Cell Apoptosis (%) Early Apoptosis: 48 h (Q1-LR); for Percentage of Cell Apoptosis (%) Necrosis: 48 h (Q1-UL); for Percentage of Cell Apoptosis (%) Late Apoptosis: 48 h (Q1-UR); for apoptosis ratio (early and late apoptotic ratios): 48 h, blank control 5.77%
Procedure: To clarify the effect of steroidal pyrazines on the induction of apoptosis in PC-3 cells, a flow cytometry assay with Annexin-V-FITC/PI double staining was implemented.
The cell apoptosis was evaluated with Annexin V-FITC/PI dual staining (Beyotime, Shanghai, China), as previously described. PC-3 cells (1 × 10^6 cells per well) seeded into 6-well plates (Costar, Shanghai, China) were incubated with Ham’s F-12K containing various concentrations (0.2, 1.0, and 5.0 μM) of compound 12n for 48 h. The biological samples were analyzed using flow cytometry (CytoFLEX, CA, USA).

PC-3 cells [2] = assay: Giemsa staining for morphological features of apoptosis; assay type: cell-based, human; conditions: 1.0 and 4.0 μM, 48 h
Procedure: After being treated with 12n at different concentrations (1.0 and 4.0 μM), the cells were stained with Giemsa stain. […] Other morphological changes, such as the loss of volume and deformation of a regular appearance, were also found.
Giemsa stain was used to assess the morphological changes of PC-3 cells, according to the standard Giemsa procedure established by the supplier (Solarbio, Beijng, China). Briefly, PC-3 cells were plated at 3 × 10^3 cells/well into a 96-well plates. PC-3 cells after treatment with 12n for 48 h were fixed with methanol (75%) for 10 min at room temperature. Then, the cells were stained with Giemsa (diluted with phosphate buffer), observed, and photographed under the microscope at 200 × (Olympus Corporation, Tokyo, Japan ).

[3] = system: THLE-2 (normal human cells); assay: CCK-8 cytotoxicity on normal cells, THLE-2; assay type: cell-based
Procedure: (§1) All the thirty-six target derivatives (5a–5f, 10a–10o, and 12a–12o) were screened for antiproliferative activities against three human cancer cell lines (MCF-7, PC-3, and HepG2) and cytotoxicity on a normal human cell (THLE-2) at the concentration of 20 μM by using the CCK8 assay.
(§2) Thirty-six novel steroidal A-ring fused pyrazine hybrids were evaluated by Cell Counting Kit-8 (CCK-8) assays, to evaluate their in vitro antiproliferative activities on three human cancer cell lines and one normal cell line: MCF-7 (breast carcinoma), PC-3 (prostate carcinoma), HepG2 (liver hepatocellular carcinoma), and THLE-2 ([…]), with 5-fluorouracil as the positive control.
(§3) Cells (3 × 10^3 cells per well) seeded into 96-well plates (Costar, Shanghai, China) were incubated with Ham’s F-12K containing various concentrations of steroidal pyrazines (5a–5f, 10a–10o, and 12a–12o) for 48 h at 37 °C and 5% COThen, 10 μL of CCK-8 reagent (Beyotime, Shanghai, China) dissolved in PBS (Phosphate buffered saline) was added per well, and continuously incubated at 37 °C for 1 h. Finally, the absorbance of samples taken from each well was measured on a microplate reader at 450 nm. The antiproliferative activities were expressed as inhibitory activity and IC50 values calculated using GraphPad Software 5.0 (GraphPad Software, San Diego, CA, USA), which were the mean values of three independent tests and are shown in Table 1 and Table 2, respectively. The formula used for cell inhibitory rates was (1 - sample absorption/vehicle absorption) × 100%.

PC-3 cells [4] = assay: Cell cycle assay, PI single staining, flow cytometry; assay type: cell-based, human; conditions: for Percentage of Cell Cycles (%) G1 / Percentage of Cell Cycles (%) S / Percentage of Cell Cycles (%) G2/M: 48 h; for Percentage of Cell Cycles (%) G2/M: control 15.69%
Procedure: To further clarify the effects of A-ring fused steroidal pyrazines on cell growth, the cell cycle distribution of PC-3 cells was investigated through treatment with compound 12n at concentration gradients for 48 h (Figure 5 and Table 5).
The cell cycle was examined by PI single staining (Beyotime, Shanghai, China), as previously described. […] The samples were analyzed using flow cytometry for DNA content (CytoFLEX, California, United States).

[5] = system: PC-3 (prostate carcinoma); assay: CCK-8 antiproliferative assay, PC-3; assay type: cell-based, human
Procedure: as §1, §2, §3

[6] = system: HepG2 (liver hepatocellular carcinoma); assay: CCK-8 antiproliferative assay, HepG2; assay type: cell-based; conditions: Homo sapiens, 48 h, CCK8, mean of three independent experiments, NA = no activity, read-out: Inhibitory Ratio (Mean% ± SD%) HepG2
Procedure: as §1, §2, §3

MCF-7 (breast carcinoma) = assay: CCK-8 antiproliferative assay, MCF-7; assay type: cell-based; conditions: Homo sapiens, MCF7, 48 h, CCK8, mean of three independent experiments, NA = no activity, read-out: Inhibitory Ratio (Mean% ± SD%) MCF-7
Procedure: as §1, §2, §3

C[C@@H]1[C@]2(O[C@H]3C=C4[C@@H]5CC[C@H]6Cc7nc8c(nc7C[C@]6(C)[C@H]5C[C@@H](O)[C@]4(C)[C@]31O)C[C@@H]1CC[C@H]3C4=CC[C@@H]5[C@H](C)[C@@]6(OC[C@]45C(=O)C[C@@H]3[C@@]1(C)C8)OC(C)(C)C[C@H]6O)O[C@](C)(CO)C[C@H]2O [Cephalostatin 1]
GI50 (MCF-7): 0.099 nM | GI50 (DU-145): 0.11 nM | GI50 (NCI-H460): 0.044 nM

Ritterazine B
ED50 (nM) for P338 (P338): 0.17 nM

CC(O)C1CCC2C3CC=C4C(C)(C)c5nc(C(=O)NCCc6ccccc6)cnc5CC4(C)C3CCC12C (stereo not shown) [Compound 12n]
Percentage of Cell Apoptosis (%) Normal Living Cell (PC-3 cells [1]; PC-3, 0.2 μM): 89.20% | Percentage of Cell Apoptosis (%) Early Apoptosis (PC-3 cells [1]; PC-3, 0.2 μM): 0.76% | Percentage of Cell Apoptosis (%) Necrosis (PC-3 cells [1]; PC-3, 0.2 μM): 2.15% | Percentage of Cell Apoptosis (%) Late Apoptosis (PC-3 cells [1]; PC-3, 0.2 μM): 7.90% | apoptosis ratio (early and late apoptotic ratios) (PC-3 cells [1]; PC-3, 0.2 μM): 8.66% | Percentage of Cell Apoptosis (%) Normal Living Cell (PC-3 cells [1]; PC-3, 1.0 μM): 73.17% | Percentage of Cell Apoptosis (%) Early Apoptosis (PC-3 cells [1]; PC-3, 1.0 μM): 4.55% | Percentage of Cell Apoptosis (%) Necrosis (PC-3 cells [1]; PC-3, 1.0 μM): 3.21% | Percentage of Cell Apoptosis (%) Late Apoptosis (PC-3 cells [1]; PC-3, 1.0 μM): 19.07% | apoptosis ratio (early and late apoptotic ratios) (PC-3 cells [1]; PC-3, 1.0 μM): 23.62% | Percentage of Cell Apoptosis (%) Normal Living Cell (PC-3 cells [1]; PC-3, 5.0 μM): 54.13% | Percentage of Cell Apoptosis (%) Early Apoptosis (PC-3 cells [1]; PC-3, 5.0 μM): 3.64% | Percentage of Cell Apoptosis (%) Necrosis (PC-3 cells [1]; PC-3, 5.0 μM): 6.30% | Percentage of Cell Apoptosis (%) Late Apoptosis (PC-3 cells [1]; PC-3, 5.0 μM): 35.93% | apoptosis ratio (early and late apoptotic ratios) (PC-3 cells [1]; PC-3, 5.0 μM): 39.57% | Morphological changes of PC-3 cells (Giemsa stain) (PC-3 cells [2]): could cause the morphological change of PC-3 cells in a dose-dependent manner | inhibition at 20 µM ([3]; 20 μM, 48 h, CCK8, NA = no activity, read-out: Inhibitory Ratio (Mean% ± SD%) THLE-2): 19.3 ± 1.81% | IC50 ([3]; CCK-8, 48 h): 26700 nM | Percentage of Cell Cycles (%) G1 (PC-3 cells [4]; PC-3, 0.2 μM): 46.65% | Percentage of Cell Cycles (%) S (PC-3 cells [4]; PC-3, 0.2 μM): 37.26% | Percentage of Cell Cycles (%) G2/M (PC-3 cells [4]; PC-3, 0.2 μM): 16.09% | Percentage of Cell Cycles (%) G1 (PC-3 cells [4]; PC-3, 1.0 μM): 23.03% | Percentage of Cell Cycles (%) S (PC-3 cells [4]; PC-3, 1.0 μM): 30.78% | Percentage of Cell Cycles (%) G2/M (PC-3 cells [4]; PC-3, 1.0 μM): 46.19% | percentage of cells in the G2/M phase (PC-3 cells [4]; PC-3, 5.0 μM): 44.27% | Percentage of Cell Cycles (%) G1 (PC-3 cells [4]; PC-3, 5.0 μM): 55.73% | Percentage of Cell Cycles (%) S (PC-3 cells [4]; PC-3, 5.0 μM): 0.00% | Percentage of Cell Cycles (%) G2/M (PC-3 cells [4]; PC-3, 5.0 μM): 44.27% | inhibition at 20 µM ([5]; Homo sapiens, 48 h, 20 μM, 48 h, CCK8, mean of three independent experiments, NA = no activity, read-out: Inhibitory Ratio (Mean% ± SD%) PC-3): > 60% | IC50 ([5]; Homo sapiens, CCK-8, 48 h, triplicate): 930 ± 20 nM | SI: Selectivity index = (IC50 of THLE-2)/(IC50 of PC-3) ([5]; THLE-2 vs PC-3): 28.71 | inhibition at 20 µM [6]: 55.4 ± 1% | inhibition at 20 µM (MCF-7 (breast carcinoma)): 40.8 ± 1.72%
